The solubility is the dissolved amount per volume that the medium holds. A word on the IC50: it is the concentration needed to halve the response being measured.

The source of these data is patent US20250120912A1, “SYNERGISTIC NANOMEDICINE DELIVERING TOPOISOMERASE I TOXIN (SN-38) AND INHIBITORS OF POLYNUCLEOTIDE KINASE 3'-PHOSPHATASE (PNKP) FOR ENHANCED TREATMENT OF COLORECTAL CANCER” (THE GOVERNORS OF THE UNIVERSITY OF ALBERTA, priority 2021, published 2025).

The nature of data set [1]: In vitro drug release, dialysis-bag diffusion technique. To be noted: dialysis MWCO 3.5 kDa, 4% albumin in water, 37° C., n=3. Format: physicochemical. How it is done: […] The concentrations of SN-38 in collected samples were determined by UV-Vis spectrophotometer (BioTEK, Winooski, VT, USA). Detection was performed at a wavelength of 383 nm. […] All experiments were carried out in triplicate.

For data set [2], the system named is HCT116. Nature of the data set: Western blot of cleaved PARP, γ-H2AX, cleaved caspase-3 and -7. The format is cell-based, human. The conditions noted are these: HCT116, 10 μM, 6 h. As for the experimental part:
(§1) In brief, 1×10^6 cells were plated in each well of 6-well plates 24 h prior to the treatments. […] The cells of 3 controls received only 0.1% DMSO, 10 μM A83, and 10 μM PM26/A83, respectively. Protein extracts for western blot analysis were prepared using commercial RIPA lysis buffer (ThermoFisher Scientific, Canada) supplemented with a cocktail of protease inhibitors (Millipore Sigma, Canada). Protein concentrations were measured using the BCA assay kit (Pierce/ThermoFisher Scientific, Canada) according to the manufacturer's protocol. Equal concentrations of protein were separated by SDS-PAGE and transferred to nitrocellulose membranes. After blocking with 5% skimmed milk in TBST (50 mM Tris-HCl, pH 7.4, 150 mM NaCl, and 0.1% Tween 20), the blots were incubated with the respective primary antibodies (cleaved caspase-3 cat #9661S, cleaved caspase-7 cat #9491S, PARP cat #9542S, phospho-histone H2A.X (Ser139) cat #9718S) and secondary antibody (HRP-linked anti-rabbit IgG cat #7074S) purchased from Cell Signaling Technology (Whitby, ON, Canada). The protein bands were detected using an enhanced chemiluminescence (ECL) based system (Pierce/ThermoFisher Scientific, Canada). The band intensities for the PNKP protein were quantified by performing optical density analysis using ImageJ software. Each experiment was carried out in triplicate.
A general note: A western blot detects proteins with antibodies after separation by electrophoresis.

Data set [3] deals with HT-29. Described as above. To be noted: HT-29, 10 μM, 6 h. Format: cell-based, human. How it is done:
as §1

The nature of data set [4]: Water solubilized level of drug. Format: physicochemical.
In a further data set the test system is healthy CD-1 mice. To be noted: up to 50 mg/kg intravenously, Cremophor EL: Ethanol or micellar formulation [20]; cited from earlier work.
The subject of data set [5] is HCT116. Nature of the data set: In vitro cytotoxicity assay (MTS).
Method: (§2) Two CRC cell lines, HCT116 and HT-29 originally purchased from ATCC were used. The cells were cultured at 37° C. in 5% CO2 in a humidified incubator in a 1:1 mixture of Dulbecco's modified Eagle medium and F12 (DMEM/F12) supplemented with 10% FBS, 50 U/mL penicillin, 50 mg/mL streptomycin, 2 mmol/L L-glutamine, 0.1 mmol/L nonessential amino acids, and 1 mmol/L sodium pyruvate.
(§3) In brief, 2×10^3 cells were plated in each well of 96-well flat-bottomed plates 24 h prior to the treatments. […] After different experimental incubation time points (24, 48, and 72 h), 20 μL of MTS reagent was added in each well and further incubated for 1 h at 37° C. before measuring the absorbance at 490 nm using BioTEK microplate reader. Each experiment was performed in quadruplicates.
Data set [6] relates to HT-29. Description: In vitro cytotoxicity assay (MTS). To be noted: Homo sapiens.
Method: as §2, §3
For data set [7] the following is noted: literature [5]; cited from earlier work.

≈ marks a conversion by molar mass, not a printed value. Where two headings read alike, the source gives them in different places. Some results are limits rather than exact numbers.

Turning to `COc1ccccc1C(O)C1C=CC2C(=O)N(Cc3cccc4ccccc34)C(=O)C2N1Nc1ccc([N+](=O)[O-])cc1` (centres unmarked) [A83B4C63, 2-[hydroxy (2-methoxyphenyl)methyl]-6-(naphthalene-1-ylmethyl)-1-[(4-nitrophenyl)amino]-2H, 4aH, 7aH-pyrrolo[3,4-b]pyridine-5,7-dione], the “release of A83B4C63” value in data set [1] (over 6 h) is on record as 98.81±2.09%. Moreover, the apoptotic signaling result in the data set with HCT116 [2] and with HT-29 [3] was “no apoptotic signaling” in each case. Further, in data set [4] (water, without micelles), the concentration in solution (solubility) was 1 µM (≈ 0.565 µg/mL). Also, the “systemic and tissue toxicity” value in the data set on healthy CD-1 mice was “neither systemic nor tissue toxicity”. The IC50 in the data set with HCT116 [5] (Homo sapiens, HCT-116, read-out: relative IC50 of PNKP inhibitor alone) is more than 40 µM; in the data set with HT-29 [6] (HT-29, read-out: relative IC50 of PNKP inhibitor alone), more than 40 µM.
As to `CCc1c2c(nc3ccc(OC(=O)N4CCC(N5CCCCC5)CC4)cc13)-c1cc3c(c(=O)n1C2)COC(=O)[C@]3(O)CC` [Irinotecan, 7-ethyl-10-[4-(1-piperidino)-1-piperidino] carbonyloxycamptothecin], the IC50 was 7.3 ± 3.7 µM in the data set with HCT116 [5] (Homo sapiens, HCT-116, 24 h, read-out: IC50 (relative IC50)); 3.9 ± 1.7 µM in the data set on HCT116 [5] (Homo sapiens, HCT-116, 48 h, read-out: IC50 (relative IC50)); 6.3 ± 1.6 µM with HCT116 [5] (Homo sapiens, HCT-116, 72 h, read-out: IC50 (relative IC50)); 10.7 ± 4.5 µM in the data set on HT-29 [6] (HT-29, 24 h, read-out: IC50 (relative IC50)); 11.6 ± 4.3 µM in the data set with HT-29 [6] (HT-29, 48 h, read-out: IC50 (relative IC50)); 7.1 µM with HT-29 [6] (HT-29, 72 h, read-out: IC50 (relative IC50)).
Take `CCc1c2c(nc3ccc(O)cc13)-c1cc3c(c(=O)n1C2)COC(=O)[C@]3(O)CC` [SN-38, (S)-4, 11-Diethyl-4,9-di-OH-1, 12-dihydro-4H-2-oxa-6,12α-diaza-dibenzo[b, h]fluorene-3,13-dione]: the “release of SN-38” value in data set [1] (over 6 h) was found to be 96.46±1.43%. For the same compound, the “release of A83B4C63” value in data set [1] (over 24 h) is listed as 99.81±0.01%. Also, the “water solubilized level of SN-38” value in data set [4] (unconjugated SN-38) is 25 µg/mL. Moreover, in data set [7], the “potency relative to the prodrug irinotecan” value is 1,000 times. Also, the IC50 in the data set on HCT116 [5] (read-out: IC50 (relative IC50), HCT116, 24 h, as TOP1 inhibitor concentration, A83B4C63 10 μM where present, n = 4) was determined as 0.14 ± 0.04 µM; in the data set with HCT116 [5] (read-out: IC50 (relative IC50), HCT116, 48 h, as TOP1 inhibitor concentration, A83B4C63 10 μM where present, n = 4), 0.05 ± 0.01 µM; with HCT116 [5] (read-out: IC50 (relative IC50), HCT116, 72 h, as TOP1 inhibitor concentration, A83B4C63 10 μM where present, n = 4), 0.02 ± 0.01 µM.
